Test results published in US20160137639A1, “TRIAZOLE-ISOXAZOLE COMPOUND AND MEDICAL USE THEREOF” (JAPAN TOBACCO INC., priority 2012, published 2016).
Read-outs that look alike come from different tables or passages of the source.

Experiments:
[1] = target: T1, human RORγ (Homo sapiens, UniProt P51449); assay: Luciferase reporter gene assay of inhibitory effect against RORγ transcriptional activity (GAL4-hRORγ plasmid in CHO cells); assay type: cell-based
T1 construct: human, NM_005060.3 and from Ser253 to Lys518; expressed in transfected cells; host or cells: CHO cells (transient co-transfection with pG5-Luc reporter)
T1 sequence (P51449 253-518): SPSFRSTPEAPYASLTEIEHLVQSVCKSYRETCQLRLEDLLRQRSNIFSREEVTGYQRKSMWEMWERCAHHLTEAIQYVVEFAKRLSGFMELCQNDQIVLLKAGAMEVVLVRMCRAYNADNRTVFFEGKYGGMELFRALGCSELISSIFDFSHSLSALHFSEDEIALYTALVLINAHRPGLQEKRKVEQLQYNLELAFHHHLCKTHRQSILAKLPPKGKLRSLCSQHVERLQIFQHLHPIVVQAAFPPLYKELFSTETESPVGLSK
Protocol: (§1) In vitro assay of inhibitory effect against RORγ transcriptional activity
(§2) Inhibitory effect of test article on transcriptional activity of RORγ was measured by means of the following luciferase reporter gene assay.
(§3) A cDNA encoding human and mouse RORγ ligand binding domain (LBD) were obtained based on the reported sequences (Genebank accession number and sequence: human, NM_005060.3 and from Ser253 to Lys518; mouse, NM_011281.2 and from Ile251 to Lys516).
(§4) The cDNA of human RORγ or mouse RORγ was inserted into pFA-CMV vector (Strategene), which expresses GAL4-DNA binding domain fusion protein.
(§5) The resulting plasmids are hereinafter referred to as GAL4-hRORγ plasmid and GAL4-mRORγ plasmid, respectively.
(§6) Human or mouse GAL4-RORγ plasmid was transiently co-transfected into Chinese hamster ovary cells (CHO cells) with […] plasmid, a reporter plasmid expressing firefly luciferase depending on GAL4.
(§7) TransIT CHO transfection reagent (Mirus) was used to co-transfect human or mouse GAL4-RORγ plasmid into CHO cells with pG5-Luc plasmid.
(§8) One day before the assay, CHO cells were suspended in HAM F-12 Nutrient medium containing 10 v/v % fetal bovine serum and seeded at 6×10^6 cells per 175 cm^2 cell culture flask.
(§9) Fifty four micro litters of Transit-CHO reagent was added into a 15 ml tube containing 1.16 ml of HAM F-12 Nutrient medium without fetal bovine serum and incubated at room temperature for 10 min.
A total 36 uL plasmid solution containing the GAL4-hRORγ plasmid (400 ng), pG5-Luc plasmid (9000 ng) and pcDNA3 plasmid (8600 ng) were added into the tube and mixed gently.
(§10) The mixture was incubated at room temperature for 10 min.
(§11) Nine micro litters of CHO Mojo Reagent was then added into each tube and mixed gently. The mixture was incubated at room temperature for 10 min.
(§12) The resultant transfection reagent was applied to the cell culture.
(§13) After incubation at 37° C., 5% CO2 for 4 hr, the transfected CHO cells were harvested by a trypsin treatment.
(§14) The collected cells were resuspended in HAM F-12 Nutrient medium supplemented with 10 v/v % fetal bovine serum and plated into a 384-well-white plate at 8,000 cells/50 uL/well.
(§15) The plate was incubated at room temperature for 1 hour and then further incubated at 37° C., 5% CO2 for 3 hours.
(§16) The test articles were dissolved in dimethylsulfoxide (DMSO) to obtain a concentration of 10 mmol/L. The resulting solution was diluted with the medium just before use and added to the cells in the plate to prepare 8 different concentrations of the test article.
(§17) The final concentration of DMSO was 0.1 v/v % After the addition of the test articles, the cells were incubated at 37° C., 5% CO2 for 2 days.
(§18) RORγ transcriptional activity was detected as the intracellular luciferase activity using SteadyLite HTS Reporter Gene Assay System (Perkin Elmer).
(§19) StedyLite Reagent was diluted five-fold into a solution containing 10 mM Tricine, 0.2% w/v BSA, 0.02% v/v Tween-20 to obtain the luciferase substrate solution.
(§20) After the measurement of the cell viability using Resazurin, the culture media in the 384 well-plate were removed. Then the Luc substrate solution was added into each well.
(§21) After the incubation at room temperature for 10 minutes, luminescence of each well was measured by a microplate reader.
(§22) The luciferase activity derived from the luminescence count in the vehicle-control well treated with 0.1% DMSO alone was defined as 100%, and the luciferase activity in the test article was calculated as a percentage (%-of-control) based on the value of the vehicle-control.
(§23) EC50 value of test article was calculated by curve fitting with GraphPad Prism.
(§24) The luminescence counts at the concentration of the test article where the cytotoxicity was observed were excluded from the data analysis.

[2] = target: T2, mouse RORγ (Mus musculus, UniProt P51450); assay: Luciferase reporter gene assay of inhibitory effect against RORγ transcriptional activity (GAL4-mRORγ plasmid in CHO cells); assay type: cell-based
T2 construct: mouse, NM_011281.2 and from Ile251 to Lys516; expressed in transfected cells; host or cells: CHO cells (transient co-transfection with pG5-Luc reporter)
T2 sequence (P51450 251-516): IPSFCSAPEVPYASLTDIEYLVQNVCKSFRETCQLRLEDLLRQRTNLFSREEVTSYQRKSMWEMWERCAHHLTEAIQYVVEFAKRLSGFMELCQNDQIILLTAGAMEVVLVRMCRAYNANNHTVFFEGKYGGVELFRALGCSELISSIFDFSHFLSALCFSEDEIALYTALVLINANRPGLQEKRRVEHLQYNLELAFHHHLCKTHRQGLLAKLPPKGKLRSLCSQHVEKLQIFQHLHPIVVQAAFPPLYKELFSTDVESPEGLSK
Protocol: as §1, §2, §3, §4, §5, §6, §7, §8, §9, §10, §11, §12, §13, §14, §15, §16, §17, §18, §19, §20, §21, §22, §23, §24

Row | Compound | EC50 ([1]; read-out: LUC EC50 (μM) hRORg) [µM] | EC50 ([2]; read-out: LUC EC50 (μM) mRORg) [µM] | EC50 ([1]; read-out: LUC EC50 hRORg) [µM] | EC50 ([2]; read-out: LUC EC50 mRORg) [µM]
1 | Cc1c(Cl)cccc1NC(=O)CCc1nnc(C2CC(C)C2)n1C1CC1 (mixture of isomers) [Example F-168] | > 3 | < 3 | – | –
2 | Cc1ccc(NC(=O)CCc2nnc(C3CC(CC(=O)OC(C)(C)C)C3)n2C2CC2)c(C)c1 (mixture of isomers) [Example F-427] | > 3 | < 3 | – | –
3 | Cc1ccc(NC(=O)CC(CC(=O)N2CC[C@@H](O)C2)c2nnc([C@H]3C[C@@H](CC(C)C)C3)n2C2CC2)c(C)c1 (mixture of isomers) [Example F-502] | – | – | > 3 | > 3
4 | Cc1ccc(NC(=O)CC(CC(=O)N2CC[C@H](O)C2)c2nnc([C@H]3C[C@@H](CC(C)C)C3)n2C2CC2)c(C)c1 (mixture of isomers) [Example F-503] | – | – | > 3 | > 3
5 | Cc1ccc(NC(=O)C[C@H](CCC(=O)O)c2noc3c2C(C)CCC3CCC(C)C)c(Cl)c1 (mixture of isomers) [Example F-691] | – | – | < 3 | < 3
6 | Cc1ccc(NC(=O)CCc2noc(C3(CO)CC(CC(C)(C)C)C3)c2C2CC2)c(Cl)c1 (mixture of isomers) [Example F-730] | – | – | < 3 | < 3
7 | Cc1ccc(NC(=O)CCc2noc(C3(O)CC(CC(C)(C)C)C3)c2C2CC2)c(Cl)c1 (mixture of isomers) [Example F-732] | – | – | < 3 | < 3
8 | CC(=O)OCCC1(c2onc(CCC(=O)Nc3ccc(C)cc3Cl)c2C2CC2)CC(CC(C)(C)C)C1 (mixture of isomers) [Example F-737] | – | – | > 3 | > 3
9 | Cc1ccc(NC(=O)CCc2noc(C3(CCO)CC(CC(C)(C)C)C3)c2C2CC2)c(Cl)c1 (mixture of isomers) [Example F-742] | – | – | > 3 | > 3
10 | Cc1ccc(NC(=O)CCc2noc(C3(CC(=O)O)CC(CC(C)(C)C)C3)c2C2CC2)c(Cl)c1 (mixture of isomers) [Example F-743] | – | – | > 3 | > 3
11 | CCn1c(C2Cc3ccccc3C2)nnc1[C@H]1C[C@@H]1C(=O)Nc1cccc2ccccc12 (racemic) [Example F-26] | > 3 | > 3 | – | –
12 | CCn1c(C2Cc3ccccc3C2)nnc1[C@@H]1C[C@@H]1C(=O)Nc1cccc2ccccc12 (racemic) [Example F-27] | > 3 | < 3 | – | –
13 | CCn1c(CC(C)C(=O)Nc2cccc3ccccc23)nnc1C1Cc2ccccc2C1 (racemic) [Example F-32] | < 3 | < 3 | – | –
14 | CCn1c(C(C)CC(=O)Nc2cccc3ccccc23)nnc1C1Cc2ccccc2C1 (racemic) [Example F-33] | < 3 | < 3 | – | –
15 | CCn1c(C(O)CC(=O)Nc2cccc3ccccc23)nnc1C1Cc2ccccc2C1 (racemic) [Example F-34] | > 3 | > 3 | – | –
16 | CCn1c(CCC2CCCCC2)nnc1[C@H]1CCCC[C@@H]1C(=O)Nc1cccc2ccccc12 (racemic) [Example F-35] | < 3 | < 3 | – | –

Row | Compound | EC50 ([1]; read-out: LUC EC50 (μM) hRORg) [µM] | EC50 ([2]; read-out: LUC EC50 (μM) mRORg) [µM] | EC50 ([1]; read-out: LUC EC50 hRORg) [µM] | EC50 ([2]; read-out: LUC EC50 mRORg) [µM]
17 | CCn1c(CCC2CCCCC2)nnc1[C@H]1C[C@@H]1C(=O)Nc1cccc2ccccc12 (racemic) [Example F-36] | > 3 | > 3 | – | –
18 | CCn1c(CCC2CCCCC2)nnc1[C@H]1C[C@@H]1C(=O)Nc1cccc2ccccc12 (racemic) [Example F-37] | – | < 3 | – | –
19 | CC(C)CCc1nnc(CCC(=O)NC2CCc3ccccc32)n1C1CC1 (racemic) [Example F-83] | > 3 | > 3 | – | –
20 | Cc1c(Cl)cccc1NC(=O)CCc1nnc(C(C)CC(C)C)n1C1CC1 (racemic) [Example F-98] | > 3 | < 3 | – | –
21 | Cc1c(Cl)cccc1NC(=O)CCc1nnc(CC(C)C(C)C)n1C1CC1 (racemic) [Example F-117] | > 3 | < 3 | – | –
22 | Cc1ccc(NC(=O)CCc2nnc(CCC3CCCCC3)n2[C@@H]2C[C@H]2C)c(C)c1 (racemic) [Example F-141] | > 3 | < 3 | – | –
23 | CC(=O)N1C[C@H](C(=O)Nc2cccc(Cl)c2C)[C@@H](c2nnc(CCC(C)C)n2C2CC2)C1 (racemic) [Example F-145] | < 3 | < 3 | – | –
24 | Cc1c(Cl)cccc1NC(=O)[C@H]1CN(C(=O)CO)C[C@@H]1c1nnc(CCC(C)C)n1C1CC1 (racemic) [Example F-146] | > 3 | < 3 | – | –
25 | CC(=O)N1C[C@H](C(=O)Nc2cccc(Cl)c2C)[C@@H](c2nnc(CCC3CCCCC3)n2C2CC2)C1 (racemic) [Example F-155] | < 3 | < 3 | – | –
26 | CCOC(=O)C(CC(=O)Nc1cccc(Cl)c1C)c1nnc(CCC(C)C)n1C1CC1 (racemic) [Example F-159] | > 3 | > 3 | – | –
27 | CC(=O)N1C[C@H](C(=O)Nc2ccc(C)cc2C)[C@@H](c2nnc(CCCC(C)(C)C)n2C2CC2)C1 [Example F-432] | < 3 | – | – | –
28 | Cc1ccc(NC(=O)C[C@H](c2nnc([C@H]3C[C@@H](CC(C)C)C3)n2C2CC2)[C@H]2C[C@@H](O)C2)c(C)c1 [Example F-514] | – | – | – | > 3
29 | Cc1ccc(NC(=O)C[C@@H](c2nnc([C@H]3C[C@@H](CC(C)C)C3)n2C2CC2)[C@H]2C[C@@H](O)C2)c(C)c1 [Example F-515] | – | – | – | < 3
30 | Cc1ccc(NC(=O)C[C@H](c2nnc([C@H]3C[C@@H](CC(C)C)C3)n2C2CC2)[C@H]2C[C@H](O)C2)c(C)c1 [Example F-522] | – | – | – | > 3
31 | Cc1ccc(NC(=O)C[C@@H](c2nnc([C@H]3C[C@@H](CC(C)C)C3)n2C2CC2)[C@H]2C[C@H](O)C2)c(C)c1 [Example F-523] | – | – | – | < 3
32 | Cc1ccc(NC(=O)[C@H](CC(=O)O)Cc2noc([C@H]3C[C@@H](CC(C)(C)C)C3)c2C2CC2)c(Cl)c1 [Example F-678] | – | – | < 3 | –
